Results reported in patent publication US9765213B2, “Drug carriers comprising amphilphilic block copolymers” (BIOCOMPATIBLES UK LIMITED, priority 2002, dated 2017).
Where a name gives a salt, the structure may show the parent alone. Numbered stars: 1 amine (or outer) side, 2 acyl side, 3 side chain; on linkers, the order of the positions; unused ones are H or OH. Bridge positions count the residues as written; N and C are the ends. Square brackets hold non-standard residues; d marks the D form. Peptide text beside a SMILES is read from it. I, II: the chains in the order shown. Actinocin(9to1) = Cc1c2oc3c(C)ccc(C(=O)[*:1])c3nc-2c(C(=O)[*:2])c(N)c1=O; NMeV = CN[C@H](C(=O)O)C(C)C; Sar = CNCC(=O)O

Assay: not given
Settings: octanol/water; determined experimentally, literature; cited from earlier work

SMILES	LogP (Exp)
Nc1nc2nc[nH]c2c(=S)[nH]1 [6-Thioguanine]	−0.28
Cc1c2oc3c(C)ccc(C(=O)N[C@@H]4C(=O)N[C@H](C(C)C)C(=O)N5CCC[C@H]5C(=O)N(C)CC(=O)N(C)[C@@H](C(C)C)C(=O)O[C@@H]4C)c3nc-2c(C(=O)N[C@@H]2C(=O)N[C@H](C(C)C)C(=O)N3CCC[C@H]3C(=O)N(C)CC(=O)N(C)[C@@H](C(C)C)C(=O)O[C@@H]2C)c(N)c1=O [Actinomycin] (I: T[dV]P[Sar][NMeV] / II: T[dV]P[Sar][NMeV]; ester I:1-I:C, II:1-II:C; linker I:N-II:N via Actinocin(9to1))	0.997
COCc1c(C(C)C)nc(C(C)C)c(/C=C/[C@@H](O)C[C@@H](O)CC(=O)O)c1-c1ccc(F)cc1 [Cerivastatin]	2.05
O=C1CCc2cc(OCCCCc3nnnn3C3CCCCC3)ccc2N1 [Cilostazol]	2.3
C[C@]12CC[C@@H]3c4ccc(O)cc4CC[C@H]3[C@@H]1CC[C@@H]2O [Estradiol]	4.3
COc1cc([C@@H]2c3cc4c(cc3[C@@H](O[C@@H]3O[C@@H]5CO[C@@H](C)O[C@H]5[C@H](O)[C@H]3O)[C@H]3COC(=O)[C@H]23)OCO4)cc(OC)c1O [Etoposide]	0.99
O=c1[nH]cc(F)c(=O)[nH]1 [Fluorouracil]	−1
CC(C)n1c(/C=C/C(O)CC(O)CC(=O)O)c(-c2ccc(F)cc2)c2ccccc21 (centres unmarked) [Fluvastatin]	1.67
CC[C@H](C)C(=O)O[C@H]1C[C@@H](C)C=C2C=C[C@H](C)[C@H](CC[C@@H]3C[C@@H](O)CC(=O)O3)[C@H]21 [Lovastatin]	1.7
CC[C@H](C)C(=O)O[C@H]1C[C@H](O)C=C2C=C[C@H](C)[C@H](CC[C@@H](O)C[C@@H](O)CC(=O)O)[C@H]21 [Pravastatin]	−0.23
CC(=O)O[C@H]1C(=O)[C@@]2(C)[C@H]([C@H](OC(=O)c3ccccc3)[C@]3(O)C[C@H](OC(=O)[C@H](O)[C@@H](NC(=O)c4ccccc4)c4ccccc4)C(C)=C1C3(C)C)[C@]1(OC(C)=O)CO[C@@H]1C[C@@H]2O [Taxol]	3.98
CC[C@]1(O)C[C@@H]2CN(CCc3c([nH]c4ccccc34)[C@@](C(=O)OC)(c3cc4c(cc3OC)N(C)[C@H]3[C@@](O)(C(=O)OC)[C@H](OC(C)=O)[C@]5(CC)C=CCN6CC[C@]43[C@@H]65)C2)C1 [Vinblastine]	1.68
CC[C@]1(O)C[C@H]2CN(CCc3c([nH]c4ccccc34)[C@@](C(=O)OC)(c3cc4c(cc3OC)N(C=O)[C@H]3[C@@](O)(C(=O)OC)[C@H](OC(C)=O)[C@]5(CC)C=CCN6CC[C@]43[C@@H]65)C2)C1 [Vincristine Sulfate]	2.14

Assay: Dipyridamole loading by pH change
Type: physicochemical
Settings: pH 2
Protocol: In another example of drug loading, a solution of the drug dipyridamole was used given the intensely coloured nature of the drug allows simple detection. At pH 2 this drug was dissolved to give a fluorescent green-yellow solution. By adjusting the pH to 9-10 the drug was seen to precipitate.

SMILES	solubility behaviour of the drug
OCCN(CCO)c1nc(N2CCCCC2)c2nc(N(CCO)CCO)nc(N3CCCCC3)c2n1 [Dipyramidole]	dissolved

Same assay, conditions: pH 9-10

SMILES	solubility behaviour of the drug
OCCN(CCO)c1nc(N2CCCCC2)c2nc(N(CCO)CCO)nc(N3CCCCC3)c2n1 [Dipyramidole]	precipitate

Assay: Release of solubilised Orange OT dye from micelles by lowered pH (particle size)
Type: physicochemical
Settings: pH 4.5, after release from MPC30-DEA60 micelles
Text: The release of solubilised Orange OT dye from micelles, as a model for drug release, using lowered pH as the stimuli was examined.

SMILES	share of the particle population [%]
Cc1ccccc1N=Nc1c(O)ccc2ccccc12 [Orange OT]	1

Same assay, conditions: released from MPC30-DEA60 micelles, pH reduced to pH 4.5

SMILES	mean particle diameter of released dye aggregates [nm]
Cc1ccccc1N=Nc1c(O)ccc2ccccc12 [Orange OT]	113
